How the values were obtained:
[1] = system: Plasmodium falciparum; assay: Antimalarial activity against Plasmodium falciparum 3D7 infected in ARh+ human erythrocytes after 42 to 48 hrs by Picogreen staining-based 96 well microplate assay; type: functional, organism-based
[2] = system: Plasmodium falciparum; assay: Antimalarial activity against Plasmodium falciparum 3D7 infected in ARh+ human erythrocytes at 1 uM after 42 to 48 hrs by Picogreen staining-based 96 well microplate assay; type: functional; conditions: read-out: GI
[3] = system: Plasmodium falciparum; assay: Antimalarial activity against Plasmodium falciparum 3D7 infected in ARh+ human erythrocytes at 10 uM after 42 to 48 hrs by Picogreen staining-based 96 well microplate assay; type: functional; conditions: read-out: GI
[4] = system: Plasmodium falciparum; assay: Antimalarial activity against Plasmodium falciparum 3D7 infected in ARh+ human erythrocytes at 0.1 uM after 42 to 48 hrs by Picogreen staining-based 96 well microplate assay; type: functional; conditions: read-out: GI
[5] = system: Plasmodium falciparum; assay: Antimalarial activity against Plasmodium falciparum 3D7 infected in ARh+ human erythrocytes at 0.01 uM after 42 to 48 hrs by Picogreen staining-based 96 well microplate assay; type: functional; conditions: read-out: GI
[6] = system: hERG (KCNH2); assay: Selectivity index, ratio of IC50 for inhibition of human ERG expressed in Xenopus laevis oocytes to IC50 for Plasmodium falciparum 3D7; type: toxicity, cell-based; conditions: read-out: Ratio IC50
[7] = target: Voltage-gated inwardly rectifying potassium channel KCNH2 (Homo sapiens, UniProt Q12809); assay: Inhibition of human ERG expressed in Xenopus laevis oocytes by two-electrode voltage clamp assay; type: cell-based
Sequence of Voltage-gated inwardly rectifying potassium channel KCNH2 (Q12809 whole entry): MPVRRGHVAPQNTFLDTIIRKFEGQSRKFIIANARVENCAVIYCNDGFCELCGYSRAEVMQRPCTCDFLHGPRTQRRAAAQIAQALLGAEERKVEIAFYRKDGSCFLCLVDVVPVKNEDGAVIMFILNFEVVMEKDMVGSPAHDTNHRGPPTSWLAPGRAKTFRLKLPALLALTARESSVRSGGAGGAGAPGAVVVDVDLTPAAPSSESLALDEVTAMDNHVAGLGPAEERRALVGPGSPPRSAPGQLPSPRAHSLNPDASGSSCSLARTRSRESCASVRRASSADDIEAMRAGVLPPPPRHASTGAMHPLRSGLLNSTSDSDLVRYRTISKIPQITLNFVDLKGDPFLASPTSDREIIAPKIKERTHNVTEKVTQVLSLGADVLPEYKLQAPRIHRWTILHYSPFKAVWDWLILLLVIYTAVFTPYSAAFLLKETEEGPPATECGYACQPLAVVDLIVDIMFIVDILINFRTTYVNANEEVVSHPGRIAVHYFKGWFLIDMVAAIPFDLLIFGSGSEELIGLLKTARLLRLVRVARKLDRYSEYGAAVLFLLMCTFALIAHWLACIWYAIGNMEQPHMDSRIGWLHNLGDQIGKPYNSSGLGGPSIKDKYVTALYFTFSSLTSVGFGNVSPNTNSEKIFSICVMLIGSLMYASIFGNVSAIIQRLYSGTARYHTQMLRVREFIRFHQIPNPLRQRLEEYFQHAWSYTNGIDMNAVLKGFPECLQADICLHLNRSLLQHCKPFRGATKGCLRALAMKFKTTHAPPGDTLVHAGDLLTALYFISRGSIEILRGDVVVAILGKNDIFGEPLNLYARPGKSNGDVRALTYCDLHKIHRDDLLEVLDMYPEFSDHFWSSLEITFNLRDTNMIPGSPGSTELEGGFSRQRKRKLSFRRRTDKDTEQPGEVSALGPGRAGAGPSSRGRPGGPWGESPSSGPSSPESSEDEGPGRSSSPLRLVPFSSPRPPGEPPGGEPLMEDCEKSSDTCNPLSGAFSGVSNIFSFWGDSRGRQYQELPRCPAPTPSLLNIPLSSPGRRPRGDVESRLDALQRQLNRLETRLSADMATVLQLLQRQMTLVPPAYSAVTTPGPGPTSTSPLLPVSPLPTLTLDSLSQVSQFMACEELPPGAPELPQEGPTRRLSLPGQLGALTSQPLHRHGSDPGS

[8] = system: Plasmodium falciparum; assay: Antiplasmodial activity against Plasmodium falciparum K1 at 0.002 to 100 ug/ml by serial drug dilution assay; type: functional, organism-based

| Structure (SMILES) | IC50 [1] [nM] | inhibition of growth at 1 µM [2] [%] | inhibition of growth at 10 µM [3] [%] | inhibition of growth at 0.1 µM [4] [%] | inhibition of growth at 0.01 µM [5] [%] | selectivity ratio [6] | IC50 [7] [nM] | IC50 [8] [nM] |
| --- | --- | --- | --- | --- | --- | --- | --- | --- |
| COc1ccc(CCN2CCN(c3nc4ccccc4n3Cc3ccc(F)cc3)CC2)cc1 | 6530 | 21 | 57 | 0 | 0 | – | – | – |
| COc1ccc(CCN2CCC(Nc3nc4ccccc4[nH]3)CC2)cc1 | 78 to 79.7 | 100 | 100 | 52 | 6 | 2.1 | 164 | – |
| COc1ccc(CCN2CCN(Cc3nc4ccccc4n3Cc3ccc(F)cc3)CC2)cc1 | 4640 | 12 | 72 | 0 | 3 | – | – | – |
| CN(C)CCC=C1c2ccccc2CCc2ccccc21 [AMITRIPTYLINE] | – | – | – | – | – | – | – | 500 |
| OCCN1CCN(CCCN2c3ccccc3Sc3ccc(C(F)(F)F)cc32)CC1 [FLUPHENAZINE] | – | – | – | – | – | – | – | 500 |
| CNCCC=C1c2ccccc2CCc2ccccc21 [NORTRIPTYLINE] | – | – | – | – | – | – | – | 500 |
| CN(C)CCCN1c2ccccc2Sc2ccccc21 [PROMAZINE] | – | – | – | – | – | – | – | 500 |
| Fc1ccc(Cn2c(NC3CCNCC3)nc3ccccc32)cc1 [TECASTEMIZOLE] | 2300 | 17 | 100 | 0 | 5 | – | – | – |

The next lines start with results.

| IC50 [1] [nM] | Structure (SMILES) | inhibition of growth at 1 µM [2] [%] | inhibition of growth at 10 µM [3] [%] | inhibition of growth at 0.1 µM [4] [%] | inhibition of growth at 0.01 µM [5] [%] | selectivity ratio [6] | IC50 [7] [nM] | IC50 [8] [nM] |
| --- | --- | --- | --- | --- | --- | --- | --- | --- |
| 5320 | COc1ccc(CCN2CCC(Nc3nc4ccccc4n3Cc3ccc(F)cc3)C2)cc1 (stereo unspecified) | 14 | 67 | 0 | 0 | – | – | – |
| 50 to 113 | CCCCCCCCCCn1c(NC2CCN(CCc3ccc(OC)cc3)CC2)nc2ccccc21 | 100 | 100 | 77 | 0 | 18.4 | 2070 | – |
| 29 to 29.6 | CCCCCCCCn1c(NC2CCN(CCc3ccc(OC)cc3)CC2)nc2ccccc21 | 96 | 100 | 93 | 4 | 110 | 3270 | – |
| 39.4 to 44 | COc1ccc(CCN2CCC(Nc3nc4ccccc4n3CC3CCCCC3)CC2)cc1 | 100 | 100 | 80 | 1 | 0.1 | 3.27 | – |
| 85 to 102 | COc1ccc(CCN2CCC(Nc3nc4ccccc4n3Cc3ccc(F)cc3F)CC2)cc1 | 100 | 80 | 55 | 0 | 1.7 | 178 | – |
| 28 to 92 | COc1ccc(CCN2CCC(Nc3nc4ccccc4n3CCC(C)C)CC2)cc1 | 100 | 97 | 54 | 0 | 7.6 | 212 | – |
| 162 to 171 | COc1ccc(CCN2CCC(Nc3nc4ccccc4n3Cc3ccc(F)cc3)CC2)cc1 [ASTEMIZOLE] | 91 | 99 | 37 | 0 | – | – | – |

Reference: ChEMBL document CHEMBL4177615 (Bioorg Med Chem, 2017)
